Read-outs that look alike come from different tables or passages of the source.
Tested on: L1210 tumor cells
Conditions: 30 mg/Kg s.c. methionine-enkephalin where combined
Text: Groups of BDF1 female mouse strain (16-20 gms) were inoculated with L1210 (leukemia) tumor cells (1×10^4, 1×10^3, or 1×10^2 cells) and observed for survival. The L1210 line of tumor cells was maintained in DBA/2 host mice. Ascitic fluid from the DBA/2 mice was used to inoculate the BDF1 mice transferred in RPMI 1640 buffer at pH 8-9).
In order to test for any synergistic effect of using an endogenous enkephalin with a known chemo-therapeutic agent, a study involving the inoculation of groups of mice with massive doses (1×10^6 ) of L1210 tumor cells was performed in a manner analogous to the previous examples transferred in RPMI 1640 at pH 7.

`N.N.[Cl][Pt][Cl]` [Cis-platin, cis-platin] was tested, and the cumulative dead (2 mg/Kg cis-platin, day 9) was 3/20, the cumulative dead (2 mg/Kg cis-platin, day 10) was 13/20 and the cumulative dead (2 mg/Kg cis-platin, day 11) was 14/20. For the same compound, the cumulative dead (2 mg/Kg cis-platin, day 12) was 15/20, the cumulative dead (2 mg/Kg cis-platin, day 13) was 17/20 and the cumulative dead (2 mg/Kg cis-platin, day 14) was 19/20. For the same compound, the “Median Day of Death (ED50)” value (2 mg/Kg cis-platin, saline control 9 Days) was 10 days, the cumulative dead (4 mg/Kg cis-platin, day 11) was 10/20 and the cumulative dead (4 mg/Kg cis-platin, day 12) was 15/20. The cumulative dead (4 mg/Kg cis-platin, day 13) was 19/20, the cumulative dead (4 mg/Kg cis-platin, day 15) was 20/20 and the “Median Day of Death (ED50)” value (4 mg/Kg cis-platin, saline control 8 Days) was 10 days. For the same compound, the “Median Day of Death (ED50)” value (8 mg/Kg cis-platin, saline control 8 days) was 12 days, the cumulative dead (single dose 8 mg/Kg cis-platin, day 9) was 2/20 and the cumulative dead (single dose 8 mg/Kg cis-platin, day 12) was 4/20. The cumulative dead (single dose 8 mg/Kg cis-platin, day 13) was 7/20, the cumulative dead (single dose 8 mg/Kg cis-platin, day 14) was 12/20 and the cumulative dead (single dose 8 mg/Kg cis-platin, day 15) was 16/20. For the same compound, the cumulative dead (single dose 8 mg/Kg cis-platin, day 16) was 18/20, the cumulative dead (single dose 8 mg/Kg cis-platin, day 18) was 19/20 and the cumulative dead (single dose 8 mg/Kg cis-platin, day 20) was 20/20.
